Patent publication US8293374B2, “Test system for evaluating the compatibility of biologically active substances with copolymers” (Abbott GmbH & Co. KG, priority 2002, dated 2012)

What was measured:
[1] = Thermodynamic saturation solubility in test solvent, HPLC of clear supernatant after stirring 24 hours (method b); format: physicochemical
Protocol: Quantitative determination of the solubility is possible for example in the following way: • a) A concentration series is prepared by bringing various amounts of biologically active substance into contact with a constant amount of test solvent in parallel tests. After an equilibration time over a defined period at a given temperature, preferably with blending, e.g. stirring for 24 hours or ultrasound treatment for 30 min, the maximum concentration at which clear solutions are obtained is found. The solubility of the biologically active substance is between the concentration at which a clear solution is obtained but at the next concentration no clear solution is obtained. • b) An amount of the test solvent which is insufficient for completely dissolving is added to an amount of the biologically active substance, or further amounts of biologically active substance are added to the solution until the added amount no longer completely dissolves. After an equilibration time over a defined period at a given temperature, preferably with blending, e.g. stirring for 24 hours or ultrasound treatment for 30 min, a sample of the clear supernatant is taken. The mixture can for this purpose be previously centrifuged, e.g. using an ultracentrifuge at 8000 to 12 000 rpm. The concentration of the biologically active substance is determined in the sample of the clear supernatant, e.g. by high pressure liquid chromatography (HPLC). The value which is found corresponds to the solubility of the biologically active substance.
(§1) The copolymer was simulated by a mixture of 1,3-bis-(pyrrolidon-1-yl)butane and 1,4-diacetoxybutane in the ratio of 6:4 by weight.
In an alternative determination method, 150 mg of lopinavir were mixed with 350 mg of the test solvent and stirred at room temperature for 24 hours. The sample was then centrifuged at 12 000 rpm for one minute. The clear supernatant was investigated by HPLC.
Example 1b) was repeated but with the test solvent containing 5% by weight Cremophor RH 40.
Example 1b) was repeated with the abovementioned active ingredient premix. 21.3% by weight lopinavir was found in the clear supernatant by HPLC.
Example 3a) was repeated, using the concentrations indicated in the table below, and with the test solvent containing 10% by weight Cremophor RH 40. […] The HPLC method led to a result of 21.7% for lopinavir.

[2] = Maximum solubility in test solvent after ultrasound treatment, HPLC of supernatant (method c); format: physicochemical
Protocol: However, the active ingredient loading in solid solutions can be increased greatly by energy input. The maximum active ingredient loading achievable in a given matrix of a copolymer can be predicted with the test system of the invention by determining the solubility of the biologically active substance in accordance with one of the aforementioned methods a) or b), the equilibration being carried out by heating to a temperature of, for example, 140° C., in particular from 110 to 140° C., or by sonication.
as §1
The maximum solubility was determined by mixing 60 mg of lopinavir with 140 mg of the test solvent and treating with ultrasound at room temperature for 30 min. The solvent was then centrifuged at 10 000 rpm for 10 min. A sample of the clear supernatant was investigated by HPLC. […] The remaining amount of the sample was stored at room temperature for 4 weeks. Then a further sample of the supernatant was taken and investigated by HPLC. A concentration of 28.87% by weight was found.

## Cc1cccc(C)c1OCC(=O)N[C@@H](Cc1ccccc1)[C@@H](O)C[C@H](Cc1ccccc1)NC(=O)[C@H](C(C)C)N1CCCNC1=O [Lopinavir]
[1]; 150 mg lopinavir + 350 mg test solvent 6:4, stirred at room temperature 24 hours, HPLC of clear supernatant
  solubility: 24.9 % by weight
[1]; 5% by weight Cremophor RH 40 in test solvent versus none
  influence of Cremophor RH 40 on thermodynamic saturation solubility: reduces the thermodynamic saturation solubility
[1]; HPLC of supernatant, test solvent containing 5% by weight Cremophor RH 40
  solubility: 22.8%
[1]; HPLC, lopinavir/ritonavir premix 4:1 by weight, test solvent 6:4
  lopinavir found in the clear supernatant: 21.3 % by weight
[1]; lopinavir/ritonavir premix 4:1, test solvent containing 10% by weight Cremophor RH 40
  thermodynamic saturation solubility, HPLC method: 21.7%
[1]; presence of ritonavir (premix 4:1) versus lopinavir alone
  influence of ritonavir on thermodynamic saturation solubility: reduces the thermodynamic saturation solubility
[2]; 60 mg lopinavir + 140 mg test solvent, ultrasound at room temperature 30 min, HPLC of supernatant
  maximum solubility: 39.72 % by weight
[2]; after ultrasound treatment, sample stored at room temperature for 4 weeks, HPLC
  concentration in supernatant after storage: 28.87 % by weight
